Reference: ChEMBL document CHEMBL5303766, “Data for DCP probe FHT-2344” (2022)

Legend:
[1] = target: Fibroblast growth factor receptor 3 (Homo sapiens) (UniProt P22607); assay: FGFR3 SGC Tm panel (DSF); conditions: for ΔTm: Compound concentration 10.0 uM
[2] = target: Dual specificity mitogen-activated protein kinase kinase 1 (Homo sapiens) (UniProt Q02750); assay: MAP2K1 SGC Tm panel (DSF); conditions: for ΔTm: Compound concentration 10.0 uM
[3] = target: T1, Serine/threonine-protein kinase haspin (Homo sapiens) (UniProt Q8TF76); assay: GSG2 SGC Tm panel (DSF); conditions: for ΔTm: Compound concentration 10.0 uM
T1 sequence (whole entry): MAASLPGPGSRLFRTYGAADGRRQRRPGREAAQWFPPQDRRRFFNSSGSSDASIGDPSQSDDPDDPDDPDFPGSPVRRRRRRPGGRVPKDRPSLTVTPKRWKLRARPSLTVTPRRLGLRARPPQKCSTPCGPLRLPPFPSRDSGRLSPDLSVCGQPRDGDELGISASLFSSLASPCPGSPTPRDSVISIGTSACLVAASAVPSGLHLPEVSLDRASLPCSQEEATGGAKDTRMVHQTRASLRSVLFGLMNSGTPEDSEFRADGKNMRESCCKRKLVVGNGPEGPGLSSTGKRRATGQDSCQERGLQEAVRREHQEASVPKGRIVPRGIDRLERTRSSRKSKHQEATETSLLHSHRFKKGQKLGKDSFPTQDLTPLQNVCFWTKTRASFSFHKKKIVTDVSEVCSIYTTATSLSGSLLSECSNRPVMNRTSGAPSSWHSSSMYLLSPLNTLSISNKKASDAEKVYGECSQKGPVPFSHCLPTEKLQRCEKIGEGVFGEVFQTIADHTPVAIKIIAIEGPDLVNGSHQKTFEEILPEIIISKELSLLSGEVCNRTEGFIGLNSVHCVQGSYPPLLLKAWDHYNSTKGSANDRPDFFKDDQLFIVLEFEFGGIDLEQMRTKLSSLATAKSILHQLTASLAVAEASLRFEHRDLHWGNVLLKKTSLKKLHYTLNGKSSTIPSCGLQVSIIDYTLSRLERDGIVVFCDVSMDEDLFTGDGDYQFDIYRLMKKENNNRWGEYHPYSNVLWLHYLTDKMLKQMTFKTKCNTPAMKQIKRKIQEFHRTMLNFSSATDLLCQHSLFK

[4] = target: Calcium/calmodulin-dependent protein kinase kinase 2 (Homo sapiens) (UniProt Q96RR4); assay: CAMKK2 SGC Tm panel (DSF); conditions: for ΔTm: Compound concentration 10.0 uM
Calcium/calmodulin-dependent protein kinase kinase 2 (Homo sapiens), sequence (Q96RR4 2-588 limits assumed): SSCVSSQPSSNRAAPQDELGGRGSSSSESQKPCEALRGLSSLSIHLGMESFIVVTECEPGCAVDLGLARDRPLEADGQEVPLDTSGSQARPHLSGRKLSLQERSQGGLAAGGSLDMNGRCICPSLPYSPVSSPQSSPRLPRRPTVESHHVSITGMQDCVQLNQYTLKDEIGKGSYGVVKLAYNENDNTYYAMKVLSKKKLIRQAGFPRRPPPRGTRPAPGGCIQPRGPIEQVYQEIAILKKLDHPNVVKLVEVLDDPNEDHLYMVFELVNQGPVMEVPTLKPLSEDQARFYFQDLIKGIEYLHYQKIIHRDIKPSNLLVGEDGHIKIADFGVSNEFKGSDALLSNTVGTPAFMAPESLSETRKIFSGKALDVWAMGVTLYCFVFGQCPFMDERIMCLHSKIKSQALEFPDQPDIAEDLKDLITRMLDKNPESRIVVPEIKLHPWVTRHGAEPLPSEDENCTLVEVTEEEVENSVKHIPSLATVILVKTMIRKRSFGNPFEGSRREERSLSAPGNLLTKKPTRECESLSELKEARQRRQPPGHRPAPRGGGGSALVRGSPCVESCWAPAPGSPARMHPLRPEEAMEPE

[5] = target: Dual specificity protein kinase CLK3 (Homo sapiens) (UniProt P49761); assay: CLK3 SGC Tm panel (DSF); conditions: for ΔTm: Compound concentration 10.0 uM
Dual specificity protein kinase CLK3 (Homo sapiens), sequence (P49761 whole entry, looked up): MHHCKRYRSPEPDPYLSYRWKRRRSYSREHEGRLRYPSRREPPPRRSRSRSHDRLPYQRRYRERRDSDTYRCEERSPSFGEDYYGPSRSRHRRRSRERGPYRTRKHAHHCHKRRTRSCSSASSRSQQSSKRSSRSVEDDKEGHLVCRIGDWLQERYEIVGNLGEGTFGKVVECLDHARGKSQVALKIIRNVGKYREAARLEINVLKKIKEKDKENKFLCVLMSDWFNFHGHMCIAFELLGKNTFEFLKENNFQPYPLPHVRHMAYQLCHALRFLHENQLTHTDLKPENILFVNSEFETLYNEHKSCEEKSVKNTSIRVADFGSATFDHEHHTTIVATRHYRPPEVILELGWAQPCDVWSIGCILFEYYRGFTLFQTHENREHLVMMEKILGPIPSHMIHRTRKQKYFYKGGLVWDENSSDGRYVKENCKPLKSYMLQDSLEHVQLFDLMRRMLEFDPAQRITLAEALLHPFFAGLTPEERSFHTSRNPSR

[6] = target: T2, Peripheral plasma membrane protein CASK (Homo sapiens) (UniProt O14936); assay: CASK SGC Tm panel (DSF); conditions: for ΔTm: Compound concentration 10.0 uM
T2 sequence (whole entry): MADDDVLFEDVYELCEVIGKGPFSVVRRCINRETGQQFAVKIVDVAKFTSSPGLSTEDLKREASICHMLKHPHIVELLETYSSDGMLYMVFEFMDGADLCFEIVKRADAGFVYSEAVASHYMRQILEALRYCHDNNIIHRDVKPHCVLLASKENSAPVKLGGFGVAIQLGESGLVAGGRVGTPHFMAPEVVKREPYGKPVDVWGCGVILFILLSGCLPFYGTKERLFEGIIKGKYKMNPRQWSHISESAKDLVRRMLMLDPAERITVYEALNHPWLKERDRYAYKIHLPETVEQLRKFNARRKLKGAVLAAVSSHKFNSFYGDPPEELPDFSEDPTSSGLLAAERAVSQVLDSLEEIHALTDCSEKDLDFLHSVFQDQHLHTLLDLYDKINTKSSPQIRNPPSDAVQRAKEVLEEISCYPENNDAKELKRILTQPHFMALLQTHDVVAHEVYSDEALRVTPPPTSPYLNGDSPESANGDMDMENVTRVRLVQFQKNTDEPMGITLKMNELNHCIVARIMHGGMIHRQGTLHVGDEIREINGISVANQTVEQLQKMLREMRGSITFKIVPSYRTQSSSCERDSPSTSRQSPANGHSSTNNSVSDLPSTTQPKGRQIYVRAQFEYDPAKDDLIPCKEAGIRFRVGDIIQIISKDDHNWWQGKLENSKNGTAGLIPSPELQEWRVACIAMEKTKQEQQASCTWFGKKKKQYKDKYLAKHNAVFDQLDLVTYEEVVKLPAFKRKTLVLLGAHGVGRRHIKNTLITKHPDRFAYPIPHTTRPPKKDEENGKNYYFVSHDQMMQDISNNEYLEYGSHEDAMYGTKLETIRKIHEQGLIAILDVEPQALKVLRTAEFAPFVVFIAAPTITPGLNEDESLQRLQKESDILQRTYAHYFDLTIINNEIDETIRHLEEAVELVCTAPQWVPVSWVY

[7] = target: Ephrin type-A receptor 7 (Homo sapiens) (UniProt Q15375); assay: EPHA7 SGC Tm panel (DSF); conditions: for ΔTm: Compound concentration 10.0 uM
Ephrin type-A receptor 7 (Homo sapiens), sequence (Q15375 28-998 limits assumed): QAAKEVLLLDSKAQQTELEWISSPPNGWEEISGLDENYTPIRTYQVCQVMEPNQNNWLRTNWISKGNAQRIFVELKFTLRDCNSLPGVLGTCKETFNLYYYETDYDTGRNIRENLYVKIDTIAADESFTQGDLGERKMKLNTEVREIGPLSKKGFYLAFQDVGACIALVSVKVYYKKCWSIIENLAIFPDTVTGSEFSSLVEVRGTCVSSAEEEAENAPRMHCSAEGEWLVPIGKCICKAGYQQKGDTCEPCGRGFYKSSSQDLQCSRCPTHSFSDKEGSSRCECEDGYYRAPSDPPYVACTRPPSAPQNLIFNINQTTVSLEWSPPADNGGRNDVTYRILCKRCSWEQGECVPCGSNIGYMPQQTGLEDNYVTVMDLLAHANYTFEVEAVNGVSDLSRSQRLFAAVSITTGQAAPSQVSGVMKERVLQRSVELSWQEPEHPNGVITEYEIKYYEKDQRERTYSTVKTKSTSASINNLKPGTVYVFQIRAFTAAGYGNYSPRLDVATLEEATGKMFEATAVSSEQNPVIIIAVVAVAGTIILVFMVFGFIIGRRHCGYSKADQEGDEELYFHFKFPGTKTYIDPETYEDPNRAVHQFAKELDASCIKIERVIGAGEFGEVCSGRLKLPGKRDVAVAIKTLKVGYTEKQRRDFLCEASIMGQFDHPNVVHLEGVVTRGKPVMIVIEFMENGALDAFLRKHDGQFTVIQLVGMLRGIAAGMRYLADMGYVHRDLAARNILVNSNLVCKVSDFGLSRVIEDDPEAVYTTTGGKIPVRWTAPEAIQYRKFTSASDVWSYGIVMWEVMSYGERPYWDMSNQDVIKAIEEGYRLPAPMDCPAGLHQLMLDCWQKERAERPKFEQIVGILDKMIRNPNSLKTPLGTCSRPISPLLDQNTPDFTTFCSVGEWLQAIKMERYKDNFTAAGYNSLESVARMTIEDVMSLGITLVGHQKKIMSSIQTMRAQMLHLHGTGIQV

[8] = target: Tyrosine-protein kinase ABL1 (Homo sapiens) (UniProt P00519); assay: ABL1 SGC Tm panel (DSF); conditions: for ΔTm: Compound concentration 10.0 uM
Tyrosine-protein kinase ABL1 (Homo sapiens), sequence (P00519 whole entry): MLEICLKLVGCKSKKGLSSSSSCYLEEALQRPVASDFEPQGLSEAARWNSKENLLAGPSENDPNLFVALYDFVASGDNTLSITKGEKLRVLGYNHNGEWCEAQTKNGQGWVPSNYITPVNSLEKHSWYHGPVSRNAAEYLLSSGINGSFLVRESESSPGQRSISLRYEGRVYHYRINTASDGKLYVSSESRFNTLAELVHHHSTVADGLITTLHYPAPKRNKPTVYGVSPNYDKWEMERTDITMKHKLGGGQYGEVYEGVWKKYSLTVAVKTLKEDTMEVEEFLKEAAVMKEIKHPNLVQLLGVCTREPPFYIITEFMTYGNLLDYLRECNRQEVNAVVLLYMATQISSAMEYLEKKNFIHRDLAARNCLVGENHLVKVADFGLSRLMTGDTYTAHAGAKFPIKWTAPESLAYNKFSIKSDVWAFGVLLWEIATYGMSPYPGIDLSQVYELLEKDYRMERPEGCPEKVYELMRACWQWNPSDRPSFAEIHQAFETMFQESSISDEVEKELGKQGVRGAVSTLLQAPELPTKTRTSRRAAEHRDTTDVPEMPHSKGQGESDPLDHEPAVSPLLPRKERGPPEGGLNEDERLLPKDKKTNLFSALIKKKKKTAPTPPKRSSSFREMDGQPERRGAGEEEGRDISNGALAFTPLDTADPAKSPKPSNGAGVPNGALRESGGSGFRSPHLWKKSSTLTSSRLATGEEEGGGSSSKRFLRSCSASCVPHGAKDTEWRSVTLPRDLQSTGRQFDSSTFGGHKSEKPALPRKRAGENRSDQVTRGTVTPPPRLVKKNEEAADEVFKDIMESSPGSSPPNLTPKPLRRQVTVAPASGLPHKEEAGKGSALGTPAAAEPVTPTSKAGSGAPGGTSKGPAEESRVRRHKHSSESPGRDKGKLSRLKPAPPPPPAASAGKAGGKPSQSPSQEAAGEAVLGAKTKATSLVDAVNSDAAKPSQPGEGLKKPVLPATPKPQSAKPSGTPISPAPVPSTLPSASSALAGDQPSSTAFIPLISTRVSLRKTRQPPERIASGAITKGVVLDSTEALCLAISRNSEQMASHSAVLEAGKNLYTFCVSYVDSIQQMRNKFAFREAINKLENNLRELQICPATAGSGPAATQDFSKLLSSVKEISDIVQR

[9] = target: Mu-type opioid receptor (Homo sapiens) (UniProt P35372); conditions: Compound concentration 10.0 uM
[10] = target: Histamine H1 receptor (Homo sapiens) (UniProt P35367); conditions: Compound concentration 10.0 uM
[11] = target: Alpha-2A adrenergic receptor (Homo sapiens) (UniProt P08913); conditions: Compound concentration 10.0 uM
[12] = target: Proto-oncogene tyrosine-protein kinase Src (Homo sapiens) (UniProt P12931); assay: SRC SGC Tm panel (DSF); conditions: for ΔTm: Compound concentration 10.0 uM
Proto-oncogene tyrosine-protein kinase Src (Homo sapiens), sequence (P12931 2-536 limits assumed): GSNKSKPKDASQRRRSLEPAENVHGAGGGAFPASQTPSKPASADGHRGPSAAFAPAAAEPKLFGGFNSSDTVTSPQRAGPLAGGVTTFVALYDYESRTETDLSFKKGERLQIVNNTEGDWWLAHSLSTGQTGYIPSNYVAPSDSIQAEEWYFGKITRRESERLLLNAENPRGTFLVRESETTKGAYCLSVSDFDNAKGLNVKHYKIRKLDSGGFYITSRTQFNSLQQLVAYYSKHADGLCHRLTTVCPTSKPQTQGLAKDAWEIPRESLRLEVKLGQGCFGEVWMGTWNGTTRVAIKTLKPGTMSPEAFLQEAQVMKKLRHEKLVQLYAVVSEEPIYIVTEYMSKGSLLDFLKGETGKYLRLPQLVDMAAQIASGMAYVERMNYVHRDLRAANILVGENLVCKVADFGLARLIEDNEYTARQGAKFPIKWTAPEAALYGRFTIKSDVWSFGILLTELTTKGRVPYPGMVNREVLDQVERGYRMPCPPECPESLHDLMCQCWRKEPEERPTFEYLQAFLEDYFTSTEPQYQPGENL

[13] = target: T3, Mitogen-activated protein kinase 13 (Homo sapiens) (UniProt O15264); assay: MAPK13 SGC Tm panel (DSF); conditions: for ΔTm: Compound concentration 10.0 uM
T3 sequence (whole entry): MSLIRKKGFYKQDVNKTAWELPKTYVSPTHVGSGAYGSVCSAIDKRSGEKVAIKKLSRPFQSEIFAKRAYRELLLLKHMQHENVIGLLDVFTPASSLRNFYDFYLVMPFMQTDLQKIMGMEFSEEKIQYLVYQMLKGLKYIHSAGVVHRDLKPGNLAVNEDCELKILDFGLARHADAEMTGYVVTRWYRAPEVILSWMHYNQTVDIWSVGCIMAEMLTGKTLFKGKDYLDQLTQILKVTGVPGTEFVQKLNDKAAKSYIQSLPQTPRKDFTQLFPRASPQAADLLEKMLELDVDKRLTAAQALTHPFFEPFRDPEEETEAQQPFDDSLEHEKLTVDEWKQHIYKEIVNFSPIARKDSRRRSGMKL

[14] = target: Dual specificity protein kinase CLK1 (Homo sapiens) (UniProt P49759); assay: CLK1 SGC Tm panel (DSF); conditions: for ΔTm: Compound concentration 10.0 uM
Dual specificity protein kinase CLK1 (Homo sapiens), sequence (P49759 whole entry, looked up): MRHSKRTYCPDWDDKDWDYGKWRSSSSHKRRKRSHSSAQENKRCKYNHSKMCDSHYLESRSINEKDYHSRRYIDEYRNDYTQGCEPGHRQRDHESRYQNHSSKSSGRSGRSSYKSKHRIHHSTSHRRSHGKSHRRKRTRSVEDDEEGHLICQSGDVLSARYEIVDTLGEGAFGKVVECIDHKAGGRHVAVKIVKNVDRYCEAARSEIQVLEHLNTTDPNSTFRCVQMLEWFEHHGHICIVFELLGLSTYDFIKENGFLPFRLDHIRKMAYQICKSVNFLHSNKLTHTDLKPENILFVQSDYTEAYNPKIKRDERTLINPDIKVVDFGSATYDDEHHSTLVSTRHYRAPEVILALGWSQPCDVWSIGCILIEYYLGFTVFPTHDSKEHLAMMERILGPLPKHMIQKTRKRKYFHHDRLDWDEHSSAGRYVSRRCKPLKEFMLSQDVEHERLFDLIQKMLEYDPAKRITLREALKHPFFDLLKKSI

[15] = target: Cell division control protein 42 homolog (Homo sapiens) (UniProt P60953); assay: CDC42 SGC Tm panel (DSF); conditions: for ΔTm: Compound concentration 10.0 uM

Fibroblast growth factor receptor 3 (Homo sapiens), sequence (P22607 23-806 limits assumed): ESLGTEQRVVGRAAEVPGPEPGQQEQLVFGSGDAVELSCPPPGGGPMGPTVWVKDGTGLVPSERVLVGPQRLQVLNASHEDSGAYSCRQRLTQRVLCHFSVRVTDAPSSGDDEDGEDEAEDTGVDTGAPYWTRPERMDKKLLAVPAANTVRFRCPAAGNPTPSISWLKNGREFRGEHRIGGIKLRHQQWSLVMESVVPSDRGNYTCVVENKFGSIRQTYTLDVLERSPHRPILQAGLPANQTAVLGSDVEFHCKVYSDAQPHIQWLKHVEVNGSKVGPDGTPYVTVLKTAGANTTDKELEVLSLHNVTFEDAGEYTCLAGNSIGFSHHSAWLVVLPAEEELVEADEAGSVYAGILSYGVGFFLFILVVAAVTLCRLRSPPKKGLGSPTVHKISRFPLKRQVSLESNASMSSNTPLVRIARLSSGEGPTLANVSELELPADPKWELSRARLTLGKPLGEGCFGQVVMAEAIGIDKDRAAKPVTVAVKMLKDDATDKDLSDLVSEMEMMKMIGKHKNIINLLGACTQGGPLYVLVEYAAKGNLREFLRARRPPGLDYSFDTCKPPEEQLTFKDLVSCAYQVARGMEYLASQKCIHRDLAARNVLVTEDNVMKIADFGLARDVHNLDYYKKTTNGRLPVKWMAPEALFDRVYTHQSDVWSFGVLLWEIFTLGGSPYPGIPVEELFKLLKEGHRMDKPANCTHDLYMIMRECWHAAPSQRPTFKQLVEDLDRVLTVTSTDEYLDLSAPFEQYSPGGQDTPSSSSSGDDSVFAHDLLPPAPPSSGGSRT

delta Tm Staurosporine positive control [1] | ΔTm [1] | delta Tm Staurosporine positive control [2] | ΔTm [2] | delta Tm Staurosporine positive control [3] | ΔTm [3] | delta Tm Staurosporine positive control [4] | ΔTm [4] | delta Tm Staurosporine positive control [5] | ΔTm [5] | delta Tm Staurosporine positive control [6] | ΔTm [6] | delta Tm Staurosporine positive control [7] | ΔTm [7] | delta Tm Staurosporine positive control [8] | ΔTm [8] | inhibition [9] [%] | inhibition [10] [%] | inhibition [11] [%] | delta Tm Staurosporine positive control [12] | SMILES | also measured
11.8 | 0.361 | 5.5 | -0.11 | 7.11 | -0.207 | 24.4 | 0.325 | 4.89 | -0.362 | 4.91 | 0.501 | 11.5 | 0.976 | 8.26 | 0.39 | 18.8 | 1.95 | 5.84 | 5.5 | COC[C@H](NC(=O)c1ccn(S(C)(=O)=O)c1)C(=O)Nc1nc(-c2cccc(-c3ccn(C)n3)c2)cs1 | ΔTm [12]: -0.156; delta Tm Staurosporine positive control [13]: 6.96; ΔTm [13]: 0.221; delta Tm Staurosporine positive control [14]: 10.9; ΔTm [14]: 0.489; delta Tm Staurosporine positive control [15]: 2.78; ΔTm [15]: 0.57
11.8 | 1.77 | 5.5 | -0.126 | 7.11 | -1.11 | 24.4 | 0.609 | 4.89 | -0.347 | 4.91 | 0.617 | 11.5 | 1.13 | 8.26 | 0.15 | 8.54 | 12.5 | 10.5 | 5.5 | C[C@H](NC(=O)c1cn(C2(C#N)CC2)cn1)C(=O)Nc1nc(-c2cccc(-c3ccn(C)n3)c2)cs1 | ΔTm [12]: 0.346; delta Tm Staurosporine positive control [13]: 6.96; ΔTm [13]: 0.161; delta Tm Staurosporine positive control [14]: 10.9; ΔTm [14]: 0.522; delta Tm Staurosporine positive control [15]: 2.78; ΔTm [15]: -0.206
